The values that follow come from patent publication US9157067B2, “Pluripotent cells from mammalian late epiblast layer” (priority 2006, dated 2015).

What all share (type): cell-based
In one assay the test system is Rat EpiSCs. Description: Oct-4 immunostaining of rat EpiSCs grown in supplemented CDM. As to conditions: for expression of the pluripotency marker Oct-4: after one week in CDM, 5B431542 10 uM, BMP4 10 ng/ml + 5B431542 10 uM, Activin 10 ng/ml + Noggin 100 ng/ml. How it is done:
hESCs, mouse ESCs or EpiSCS were fixed for 20 minutes at 4° C. in 4% paraformaldehyde (PFA) and then washed three times in PBS. Cells were incubated for 20 minutes at room temperature in PBS containing 10% goat serum (Serotec) and subsequently incubated over night at 4° C. with primary antibody diluted in 1% goat serum in PBS as follows: SSEA-3 (1:100, Santa Cruz), SSAE-1 (1:25, gift from PW Andrews), Tra-1-60 (1:100, Santa CruZ), Oct-4 (1:100, SantaCruz), Sox2 (1:100, Abeam ab15830), Nanog (1:100, Abeam), Blirnpl (Abeam). Cells were then washed three times in PBS and incubated with fluorescein-Isothiocyanate-conjugated anti-mouse IgG or IgM (Sigma 1:200 in 1% goat serum in PBS) or rat IgM (Jackson laboratory 1:300 in goat serum in PBS) or rabbit IgG (Jackson laboratory 1:200 in donkey serum in PBS) for two hours at room temperature. Unbound secondary antibody was removed by 3 washes in PBS. Hoechst 33258 was added to the first wash (Sigma 1:10000).
Rat EpiSCs were grown in CDM supplemented in the presence of Activin (10 ng/ml), 5B431542 (10 uM), BMP4 10 ng/ml+5B431542 (10 uM) or Activin (10 ng/ml)+Noggin (IOOng/ml). After one week, the expression of the pluripotency marker Oct-4 was analysed using immunostaining. […] Similar results were obtained with mouse EpiSCs.

The subject of assay [1] is mouse late epiblast layer. Description: Derivation of EpiSC lines from mouse late epiblast layers. The note with it: dissected mouse epiblasts in CDM with BMP4 (50 ng/ml) and LIF. How it is done:
Similar culture conditions were tested for derivation of pluripotent cells from pre- and post-implantation rodent embryos. […] For derivation at post implantation stages, the late epiblast layer of embryos at pre- or early gastrulation stages (5.5 dpc or 6.5 dpc) was separated from extraembryonic tissues by microdissection using Cell Dissociation Buffer (Invitrogen) at 4° C. for 15-20 min. to promote dissociation of the layers. […] After 24 hours, the epiblast layers formed colonies of compact cells having a high nucleo-cytoplasmic ratio, a characteristic morphological trait of pluripotent embryonic stem cells. Cells on the edge of the colony started to differentiate the following day, thereby producing a broad ring of stromal cells surrounding smaller aggregates of compact cells. These heterogeneous populations proceeded to form larger colonies of cells 4-5 days later. The latter colonies were picked, dissociated into smaller clumps using collagenase IV (Invitrogen) and then transferred to new dishes. Resulting colonies were passaged again 5 days later using collagenase and mechanical dissociation. […] These cells were designated Epiblast Stem Cells (EpiSCs) on the basis of their origin from pure epiblast cell layers.
Dissected mouse epiblasts were grown in CDM supplemented with BMP4 (50 ng/ml) and LIF, two growth factors required to maintain the pluripotent status of mouse ESCs.

The next assay relates to rat epiblast layers. Description: Derivation of EpiSC lines from rat epiblast layers. The note with it: addition to CDM supplemented with Activin. The source says: The hypothesis that Activin and FGF signalling in pluripotency are conserved in mammalian development is supported by the ability of Activin/Nodal signalling to maintain long-term pluripotency of both human ESCs and mouse EpiSCs. As a further test of this hypothesis, we attempted to derive EpiSCs from rats, a species from which embryonic stem cell derivation has been problematic. Following the method we established in the mouse, epiblast layers were dissected from rat embryos at pre-gastrula stages (E 7.5-8.5) and grown on fibronectin-coated or FBS coated plates in CDM supplemented with Activin and FGF. […] Nevertheless, four EpiSC lines were derived out of 14 embryos of the Wistar strain and 1 EpiSC line was derived out of 20 embryos from the Sprague-Dawley strain using CDM supplemented with Activin alone.

Consider `NC(=O)c1ccc(-c2nc(-c3ccccn3)c(-c3ccc4c(c3)OCO4)[nH]2)cc1` [5B431542, reference compound], for which the “expression of the pluripotency marker Oct-4” value with Rat EpiSCs was “loss of Oct-4 expression”. Besides, in the assay with Rat EpiSCs (inhibition of Activin/Nodal signalling), the “differentiation of EpiSCs” value is given as “induced rapid differentiation of EpiSCs”. For the compound “BMP4: growth factor required with LIF to maintain mouse ESC pluripotency”, in the assay on Rat EpiSCs, the “expression of the pluripotency marker Oct-4” value was “not able to rescue the pluripotent status of EpiSCs”. Further, the “derivation of EpiSC lines” value in assay [1] was “not able to derive any EpiSC lines”. Take “EGF: growth factor added to rat epiblast cultures”: in the assay with rat epiblast layers, the “differentiation of early epiblast cultures” value is given as “induced differentiation”.

For FGF2: fibroblast growth factor 2, the “differentiation of early epiblast cultures” value in the assay with rat epiblast layers was “induced differentiation”. On to “HGF: growth factor added to rat epiblast cultures”, for which the “differentiation of early epiblast cultures” value with rat epiblast layers is given as “induced differentiation”.

As to LIF: Leukaemia Inhibitory Factor, in assay [1], the “derivation of EpiSC lines” value was “not able to derive any EpiSC lines”.
